According to paper PMC7943599, “ATP signaling in the integrative neural center of Aplysia californica” (Scientific Reports, 2021):

Assays:
[1] = target: T1, AcP2X (Aplysia P2X receptor) (Aplysia californica, UniProt E2QDA7); test: two-electrode voltage clamp in Xenopus oocytes, agonist dose-response (fast component; slow component EC50 […]); assay type: cell-based
T1 construct: full-length CDS AcP2X (GenBank NP_001191558.1) expressed in Xenopus oocytes
T1 sequence (E2QDA7 1-434): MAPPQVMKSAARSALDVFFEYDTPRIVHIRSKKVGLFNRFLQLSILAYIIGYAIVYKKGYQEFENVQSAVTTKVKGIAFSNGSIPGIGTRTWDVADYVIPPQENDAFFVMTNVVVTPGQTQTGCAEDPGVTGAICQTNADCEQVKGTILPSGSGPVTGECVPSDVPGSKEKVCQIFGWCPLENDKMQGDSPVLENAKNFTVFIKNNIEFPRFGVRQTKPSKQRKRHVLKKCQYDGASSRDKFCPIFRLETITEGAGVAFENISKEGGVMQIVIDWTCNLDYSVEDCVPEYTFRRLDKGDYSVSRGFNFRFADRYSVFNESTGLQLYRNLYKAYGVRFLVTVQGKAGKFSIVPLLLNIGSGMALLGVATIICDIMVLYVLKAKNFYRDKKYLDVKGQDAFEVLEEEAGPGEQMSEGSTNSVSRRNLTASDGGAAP

[2] = target: T1, AcP2X (Aplysia P2X receptor); test: two-electrode voltage clamp in Xenopus oocytes, inhibition of current evoked by […] ATP (fast component); assay type: cell-based

## Nc1ncnc2c1ncn2[C@@H]1O[C@H](COP(=O)(O)OP(=O)(O)OP(=O)(O)O)[C@@H](O)[C@H]1O [ATP]
[1]
  EC50: 306 µM

## Cc1nc(/N=N/c2ccc(S(=O)(=O)O)cc2S(=O)(=O)O)c(COP(=O)(O)O)c(C=O)c1O [PPADS]
[2]
  IC50: 211 µM
